Test results as given in US20230102192A1, “THERAPIES FOR THE TREATMENT OF DISEASES AND DISORDERS ASSOCIATED WITH ABNORMAL EXPRESSION OF A NEURAL-ASSOCIATED GENE” (The Regents of the University of California, priority 2020, published 2023).
“Also recorded” adds a separate entry of the source.

Key:
Assay type in all cases: cell-based, human
[1] = system: MECP2-KO neurons; test: Nuclei size in neurons; settings: vs KO untreated
[2] = system: MECP2-KO neurons; test: Multi-electrode array (MEA) of neurons
Method: (§1) Pharmacologic treatment. One-month old cortical organoids were treated for 1 mo with either Nefiracetam (10 μM) or PHA 543613 (10 μM) during media changes.
Multi-electrode array (MEA) analysis. MEA analyses of neurons and cortical organoids were performed as described in Nageshappa et al. (Mol. Psychiatry 21:178-188 (2016)). Briefly, 3D neurosphere cultures of NPC derivation were plated on dual-chamber MEA; spontaneous spike activity was evaluated with the MED64 System (Panasonic). Glutamatergic (AP5, NBQX), GABAergic (Gabazine), and gap channel (Mefloquine) antagonism were used to check neuronal activity. After measurement, neurons were immunostained to check morphology and density. Recorded spikes were analyzed with the software Neuroexplorer (Nex Technologies, Madison, Ala., USA). For cortical organoids, 1-month organoids were plated on MEA plates and recordings were collected with a Maestro MEA system and AxIS Software Spontaneous Neural Configuration (Axion Biosystems, Atlanta, Ga., USA) using a customized script. The plate rested in the machine for three minutes followed by four minutes of recording. Axion Biosystems' Neural Metrics Tool classified electrodes with at least 5 spikes/min as active. […] The synchrony index was calculated using a 20 ms cross-correlogram synchrony window was used to determine the synchrony index. […]

[3] = system: MECP2-KO neurons; test: Co-localized pre/postsynaptic puncta quantification in neurons; settings: one-month old MECP2-KO neurons treated two weeks
Method: as §1
Synaptic puncta quantification. Co-localized pre and postsynaptic puncta (Vglut and Homer1 immunostained) along MAP2-positive processes were quantified. Primary antibodies (see above) incubated 2 h, secondary antibodies incubated 1 h, and coverslips were mounted. Slides were analyzed under fluorescence microscopy.
Pharmacologic screening identifies two compounds that specifically reverse MECP2-KO phenotypes. 14 commercially available pharmacologic compounds with mechanisms of action that counteract the synapse and neurotransmitter pathologies were selected and which are identified in FIG. 5B. […] MECP2-KO and control neurons were treated with each of the 14 compounds and employed a tiered series of assays to identify those that could selectively rescue MECP2-KO pathology without affecting controls. […] The capacity of these compounds to increase pre and post co-localized synaptic puncta in MECP2-KO neurons were evaluated, again eliminating the drugs that affected control neurons (see FIG. 5F-G, and FIG. 6C-D).

[4] = system: MECP2-KO neurons; test: Neuronal morphology (neurites, spine density); settings: vs KO untreated
[5] = system: MECP2-mosaic (CTR/KO) neurospheres; test: Calcium imaging of neurospheres; settings: for calcium transient amplitude: P=0.255
Method: Calcium imaging. Calcium imaging was performed as described in Chailangkarn et al. Briefly, PSC-derived neuronal networks were lentivirally transduced with a Syn::RFP reporter construct. Cultures were washed with Krebs HEPES buffer and incubated with Fluo-4AM (Molecular Probes/Invitrogen, Carlsbad, Calif., USA). A Hamamatsu ORCA-ER digital camera (Hamamatsu Photonics, Japan) with 488 nm filter on an Olympus IX81 inverted fluorescence confocal microscope (Olympus Optical, Tokyo, Japan) acquired 5000 frames at 28 Hz in a 256×256 pixel region (100× magnification). Images were acquired with MetaMorph7.7 (MDS Analytical Technologies, Sunnyvale, Calif., USA) and analyzed with ImageJ and Matlab7.2 (Mathworks, Natick, Mass., USA). Syn::RFP+ neurons were selected following tetrodotoxin blockade of calcium transients. A 95th-percentile threshold of amplitude for calcium spikes was set for event detection; signal amplitude is presented as fluorescence change (ΔF/F) following background subtraction.
Nefiracetam and PHA 543613 increase activity in MECP2-mosaic neurospheres. Because MECP2 resides on the X chromosome, random X-inactivation in females can produce a genetic pattern of mosaicism, with consequent phenotypic gradation, in which some cells express the normal allele while others are mutant. Therefore, as the next stage to evaluate the two drug candidates, a neurosphere model of MECP2 mosaicism was developed to mimic the female RTT brain by combining different proportions of control and MECP2-KO NPCs (see FIG. 7A-C). […] Calcium transient frequency in MECP2-mosaic neurospheres was increased by treatment with Nefiracetam in isolation (1 μM, P<0.05) and when combined with PHA 543613 (10 μM, P<0.001; FIG. 7H), but calcium transient amplitude was unaffected by either compound (P=0.255; FIG. 7I). To investigate the impact of the drug treatments on the electrophysiological properties of the MECP2-mosaic model, neurospheres treated with 1 μM Nefiracetam, 1 μM PHA 543613, or both Nefiracetam and PHA 543613 were plated to perform MEA analysis. […]

[6] = system: MECP2-KO neurons; test: Neuronal morphology (neurites, spine density); settings: vs KO untreated; remark: listed apart in the source
Method: Spine density and morphology/stability/motility. pHIV7/Syn-EGFP lentivirus was prepared by transfecting HEK cells using the transfection agent polyethyleneimine (Polysciences, Inc., Warrington, Pa., USA), pSyn-EGFP and packaging plasmids pMDL, Rev RSV and VSVG. During cortical neuron differentiation, on day 40, control and MECP2dup neurons were transduced with pHIV7/syn-EGFP. Post transduction, neurons were further differentiated until day 70 and were fixed with 4% PFA and further processed for imaging. Confocal images were obtained using a confocal laser-scanning microscope (Nikon), 60× oil objective, with a sequential acquisition setting at 4096×4096 pixels resolution. Each image is a Z-series projection of ˜7 to 15 images, averaged 2 times and taken at 0.5 μm depth intervals. GFP-labeled differentiated neurons were chosen randomly for quantification. Quantitative analysis was performed in a blinded manner. Dendrites on primary branches were selected randomly and for each neuron two to three segments of 10 μm were analyzed. Morphometric measurements were performed manually using the ImageJ software (1.44p version). Each spine on the dendrites was manually traced. The length and head width of each spine was automatically measured and used to categorize the spines. Specifically, spines where defined as thin and filopodia (immature) or mushroom and stubby (mature) according to the criteria defined previously. Twenty-two (51 segments of 10 μm) and 18 (42 segments of 10 μm) neurons were analyzed for the control and MECP2dup neurons, respectively; two clones for each condition.
Analysis of neuronal morphology. PSC-derived neuronal morphometry was performed as described in Chailangkarn et al. Briefly, neurons with branching neurites featuring dendritic spine-like protrusions were selected, and neuronal morphology was quantified using Neurolucida v9 (MBF Bioscience, Williston, Vt.) via Nikon Eclipse E600 microscope (40× oil). Measurements were as follows: Spine number: number of spines protruding from neurites; soma size: soma area on cross-section; spine length: summed length of all spines per neuron. The rater traced the same neuron after a period of time to ensure intra-rater reliability.

Row | Compound | nuclei size in neurons [1] | MEA spike frequency / network spiking activity [2] | synaptogenesis / co-localized synaptic puncta [3] | spine density / neuronal spine-like protrusions [4] | calcium transient frequency ([5]; 1 μM, in isolation, P<0.05 vs CTR/KO untreated) | calcium transient amplitude [5] | number of neurites [6] | total neurite length [6]
1 | Cc1cccc(C)c1NC(=O)CN1CCCC1=O [Nefiracetam, nefiracetam] | did not rescue | increases network spiking activity; also recorded: restore | specifically increased synaptogenesis | rescued or partially rescued | increased | unaffected | did not increase; also recorded: did not rescue | did not increase; also recorded: did not rescue
2 | O=C(N[C@H]1CN2CCC1CC2)c1cc2ccoc2cn1 [PHA 543613, N-[(3R)-1-azabicyclo[2.2.2]oct-3-yl]furo[2,3-c]pyridine-5-carboxamide] | did not rescue | increases network spiking activity; also recorded: restore | increases synaptic puncta | rescued or partially rescued | – | unaffected | did not increase; also recorded: did not rescue | did not increase; also recorded: did not rescue
